# Experimental data published in article PMC9304232 (Epilepsia, 2022).
# Like-named read-outs stand apart in the source and are kept apart here.
# How the values were obtained:
# hNaV1.6 [1] = biological target: T1, hNaV1.6 (Homo sapiens, UniProt Q9UQD0); test: Peak INa voltage‐dependent block; conditions: for Peak INa VDB, slope: Hill slope; for Ratio to persistent INa (peak INa VDB): VDB IC50 / persistent INa IC50
# hNaV1.6 [2] = biological target: T1, hNaV1.6; test: Peak INa use‐dependent block; type: cell-based; conditions: for Peak INa UDB, 10 Hz, slope: Hill slope; for Peak INa UDB, 10 Hz, slope / Ratio to persistent INa (peak INa UDB) / Ratio to peak INa TB (peak INa UDB): hNaV1.6; for Ratio to persistent INa (peak INa UDB): UDB IC50 / persistent INa IC50; for Ratio to peak INa TB (peak INa UDB): preference of use‐dependent block over tonic block; for Use‐dependent block at a stimulation frequency of 10 Hz: hNaV1.6, Figure 2E,F
# hNaV1.6 [3] = biological target: T1, hNaV1.6; test: ATX‐II‐induced persistent INa, whole‐cell patch clamp; conditions: for Persistent INa, slope: Hill slope of IC50 fit, hNaV1.6
# hNaV1.6 [4] = biological target: T1, hNaV1.6; test: Peak INa tonic block; type: cell-based; conditions: for Peak INa TB, slope: Hill slope; for Peak INa TB, slope / Ratio to persistent INa (peak INa TB): hNaV1.6; for Ratio to persistent INa (peak INa TB): TB IC50 / persistent INa IC50
# male CD‐1 mice [5] = test: Mouse maximal electroshock seizure; type: in vivo; conditions: for EC50: Mus musculus; for MES ED50 (increasing latency to tonic extension seizures): PRAX‐562 po, CBZ and LTG ip
# hNaV1.1 [6] = biological target: T2, hNaV1.1 (Homo sapiens, UniProt P35498); test: Peak INa tonic block, patch clamp; type: cell-based; conditions: TB IC50 / persistent IC50
# male CD‐1 mice [7] = test: Protective index; type: in vivo, mouse; conditions: for PI (plasma TC50/plasma EC50): based on free plasma concentrations
# hNaV1.5 [8] = biological target: T3, hNaV1.5 (Homo sapiens, UniProt Q14524); test: Peak INa voltage‐dependent block, patch clamp; type: cell-based; conditions: VDB IC50 / persistent IC50
# hNaV1.2 [9] = biological target: T4, hNaV1.2 (Homo sapiens, UniProt Q99250); test: Peak INa voltage‐dependent block, patch clamp; type: cell-based; conditions: VDB IC50 / persistent IC50
# T4 sequence (Q99250 whole entry): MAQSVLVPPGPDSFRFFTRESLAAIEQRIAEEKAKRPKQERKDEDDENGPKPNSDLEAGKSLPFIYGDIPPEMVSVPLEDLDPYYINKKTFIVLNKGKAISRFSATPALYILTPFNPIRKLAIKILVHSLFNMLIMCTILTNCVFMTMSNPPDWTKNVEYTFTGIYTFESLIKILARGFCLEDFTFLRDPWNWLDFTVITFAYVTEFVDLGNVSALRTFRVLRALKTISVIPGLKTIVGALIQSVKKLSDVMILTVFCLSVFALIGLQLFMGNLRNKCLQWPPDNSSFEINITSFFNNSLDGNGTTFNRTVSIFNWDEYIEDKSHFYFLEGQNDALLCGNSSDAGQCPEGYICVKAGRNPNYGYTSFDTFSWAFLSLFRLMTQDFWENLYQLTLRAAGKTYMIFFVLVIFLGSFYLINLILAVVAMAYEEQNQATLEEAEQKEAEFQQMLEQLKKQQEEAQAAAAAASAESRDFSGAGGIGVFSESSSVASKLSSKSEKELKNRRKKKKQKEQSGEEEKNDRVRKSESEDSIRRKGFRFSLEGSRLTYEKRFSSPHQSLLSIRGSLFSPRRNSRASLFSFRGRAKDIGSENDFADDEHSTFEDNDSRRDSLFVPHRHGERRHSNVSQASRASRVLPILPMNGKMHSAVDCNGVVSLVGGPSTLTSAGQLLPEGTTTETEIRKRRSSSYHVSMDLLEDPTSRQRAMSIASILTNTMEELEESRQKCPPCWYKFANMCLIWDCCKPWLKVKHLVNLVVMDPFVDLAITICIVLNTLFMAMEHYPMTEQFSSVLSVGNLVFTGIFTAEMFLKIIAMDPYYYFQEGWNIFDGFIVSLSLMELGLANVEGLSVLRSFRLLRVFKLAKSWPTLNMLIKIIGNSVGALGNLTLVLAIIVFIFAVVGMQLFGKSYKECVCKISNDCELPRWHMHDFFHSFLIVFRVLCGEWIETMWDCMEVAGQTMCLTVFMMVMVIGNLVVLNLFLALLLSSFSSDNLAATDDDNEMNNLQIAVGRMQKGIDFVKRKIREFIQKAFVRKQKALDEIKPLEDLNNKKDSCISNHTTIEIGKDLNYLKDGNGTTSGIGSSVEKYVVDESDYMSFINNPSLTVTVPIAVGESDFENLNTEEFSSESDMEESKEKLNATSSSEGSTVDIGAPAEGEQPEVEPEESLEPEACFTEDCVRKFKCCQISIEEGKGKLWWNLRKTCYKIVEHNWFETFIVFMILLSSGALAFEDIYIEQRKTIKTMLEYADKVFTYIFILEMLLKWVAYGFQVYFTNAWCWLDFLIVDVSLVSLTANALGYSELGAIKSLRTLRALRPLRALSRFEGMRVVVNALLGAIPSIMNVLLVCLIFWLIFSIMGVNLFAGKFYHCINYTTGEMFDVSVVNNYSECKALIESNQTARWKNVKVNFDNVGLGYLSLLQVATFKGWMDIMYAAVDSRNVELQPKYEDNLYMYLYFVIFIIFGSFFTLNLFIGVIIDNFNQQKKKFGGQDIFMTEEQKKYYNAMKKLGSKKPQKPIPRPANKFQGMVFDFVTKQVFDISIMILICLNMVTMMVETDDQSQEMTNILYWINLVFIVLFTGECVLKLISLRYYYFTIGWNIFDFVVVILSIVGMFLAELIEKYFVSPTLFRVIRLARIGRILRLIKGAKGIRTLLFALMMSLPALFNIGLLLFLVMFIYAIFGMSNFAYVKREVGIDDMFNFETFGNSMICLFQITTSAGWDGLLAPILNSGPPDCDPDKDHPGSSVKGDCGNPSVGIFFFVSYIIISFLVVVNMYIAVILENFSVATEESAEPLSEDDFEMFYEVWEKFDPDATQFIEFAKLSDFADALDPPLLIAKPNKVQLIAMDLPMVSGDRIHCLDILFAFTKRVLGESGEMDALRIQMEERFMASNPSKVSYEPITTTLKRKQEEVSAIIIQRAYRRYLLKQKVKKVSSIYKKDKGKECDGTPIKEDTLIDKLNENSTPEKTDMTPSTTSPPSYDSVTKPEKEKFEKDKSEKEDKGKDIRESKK
# hNaV1.2 [10] = biological target: T4, hNaV1.2; test: Peak INa tonic block, patch clamp; type: cell-based; conditions: TB IC50 / persistent IC50
# male CD‐1 mice [11] = test: Mouse spontaneous locomotor activity; type: in vivo; conditions: for sLMA TC50, free brain: calculated free brain concentration; for sLMA TD50: PRAX‐562 po, CBZ and LTG ip, dose reducing sLMA by 50%
# hNaV1.1 [12] = biological target: T2, hNaV1.1; test: Peak INa voltage‐dependent block, patch clamp; type: cell-based; conditions: VDB IC50 / persistent IC50
# hNaV1.5 [13] = biological target: T3, hNaV1.5; test: Peak INa tonic block, patch clamp; type: cell-based; conditions: TB / persistent IC50
# [14] = system: hippocampal CA1 pyramidal neurons; test: Evoked action potential firing; type: cell-based; conditions: wild‐type mouse CA1 neurons
# [15] = system: mice with Scn8a (NaV1.6‐N1768D/+, NaV1.6‐R1872W/+) or Scn2a (NaV1.2‐Q54) variants; conditions: Scn8a or Scn2a gain‐of‐function variants; ref [20], [21], [22]; cited from earlier work
# [16] = male CD‐1 mice, po, total brain
# T1 sequence (Q9UQD0 whole entry): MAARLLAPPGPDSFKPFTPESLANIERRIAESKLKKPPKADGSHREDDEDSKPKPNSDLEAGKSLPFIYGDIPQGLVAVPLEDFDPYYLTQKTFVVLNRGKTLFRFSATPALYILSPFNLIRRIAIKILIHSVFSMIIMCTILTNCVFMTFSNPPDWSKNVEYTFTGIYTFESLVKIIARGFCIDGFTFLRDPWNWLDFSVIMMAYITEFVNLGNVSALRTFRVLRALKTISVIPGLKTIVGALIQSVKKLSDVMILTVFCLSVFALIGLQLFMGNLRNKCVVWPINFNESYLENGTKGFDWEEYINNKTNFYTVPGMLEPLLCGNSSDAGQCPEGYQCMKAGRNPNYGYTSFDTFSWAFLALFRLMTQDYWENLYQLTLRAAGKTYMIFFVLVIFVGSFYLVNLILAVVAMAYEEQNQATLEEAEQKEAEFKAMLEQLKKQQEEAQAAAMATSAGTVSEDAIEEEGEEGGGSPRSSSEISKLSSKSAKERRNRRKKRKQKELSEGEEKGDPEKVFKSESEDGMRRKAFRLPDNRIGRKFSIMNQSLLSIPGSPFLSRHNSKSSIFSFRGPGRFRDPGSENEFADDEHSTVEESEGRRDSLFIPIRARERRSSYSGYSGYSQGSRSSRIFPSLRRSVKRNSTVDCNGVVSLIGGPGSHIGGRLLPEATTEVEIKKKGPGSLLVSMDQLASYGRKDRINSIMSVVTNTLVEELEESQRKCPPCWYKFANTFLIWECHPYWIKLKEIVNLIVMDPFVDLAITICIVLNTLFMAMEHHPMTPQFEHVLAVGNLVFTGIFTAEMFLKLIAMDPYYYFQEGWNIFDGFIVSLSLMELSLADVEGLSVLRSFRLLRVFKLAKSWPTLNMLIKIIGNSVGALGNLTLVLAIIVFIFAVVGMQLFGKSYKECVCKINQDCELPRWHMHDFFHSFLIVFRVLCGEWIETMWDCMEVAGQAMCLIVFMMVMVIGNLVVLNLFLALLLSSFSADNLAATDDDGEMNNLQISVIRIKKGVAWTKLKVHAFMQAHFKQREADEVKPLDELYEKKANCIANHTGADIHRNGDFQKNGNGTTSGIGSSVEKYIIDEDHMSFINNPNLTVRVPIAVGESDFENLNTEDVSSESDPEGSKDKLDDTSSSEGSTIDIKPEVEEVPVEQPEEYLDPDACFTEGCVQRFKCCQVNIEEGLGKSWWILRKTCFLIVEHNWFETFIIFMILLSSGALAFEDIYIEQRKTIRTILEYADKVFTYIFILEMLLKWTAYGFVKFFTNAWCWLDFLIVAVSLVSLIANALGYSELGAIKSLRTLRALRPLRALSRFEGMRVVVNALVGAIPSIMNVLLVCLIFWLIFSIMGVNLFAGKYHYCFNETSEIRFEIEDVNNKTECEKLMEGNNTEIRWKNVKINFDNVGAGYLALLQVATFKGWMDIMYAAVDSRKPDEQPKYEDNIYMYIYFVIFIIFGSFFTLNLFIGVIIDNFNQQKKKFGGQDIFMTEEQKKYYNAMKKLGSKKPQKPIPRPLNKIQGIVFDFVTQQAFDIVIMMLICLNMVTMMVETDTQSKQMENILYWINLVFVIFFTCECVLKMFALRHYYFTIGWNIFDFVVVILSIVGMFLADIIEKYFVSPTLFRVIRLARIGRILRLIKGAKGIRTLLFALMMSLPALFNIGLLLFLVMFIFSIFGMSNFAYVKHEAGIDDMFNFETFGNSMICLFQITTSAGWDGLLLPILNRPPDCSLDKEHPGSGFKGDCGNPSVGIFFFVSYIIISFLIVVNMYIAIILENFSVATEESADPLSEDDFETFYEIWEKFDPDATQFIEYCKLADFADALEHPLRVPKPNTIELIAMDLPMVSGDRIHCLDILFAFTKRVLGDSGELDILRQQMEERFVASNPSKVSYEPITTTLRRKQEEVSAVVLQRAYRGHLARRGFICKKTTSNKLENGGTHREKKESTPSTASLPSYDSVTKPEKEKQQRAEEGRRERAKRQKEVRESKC
smiles,measurement,setting,value
NC(=O)O[C@@H](Cn1ncnn1)c1ccccc1Cl [Cenobamate],"Peak INa VDB, slope",hNaV1.6 [1],.9
same,Ratio to persistent INa (peak INa VDB),hNaV1.6 [1],.9
same,"Peak INa UDB, 10 Hz, slope",hNaV1.6 [2],.7
same,Ratio to persistent INa (peak INa UDB),hNaV1.6 [2],11
same,Ratio to peak INa TB (peak INa UDB),hNaV1.6 [2],2.3
same,"Persistent INa, slope",hNaV1.6 [3],1.1
same,"Peak INa TB, slope",hNaV1.6 [4],1.1
same,Ratio to persistent INa (peak INa TB),hNaV1.6 [4],24
"CCOC(F)(F)c1nnc2cnc(-c3cnc(OCC(F)(F)F)c(F)c3)cn12 [PRAX‐562, 3‐[ethoxydifluoromethyl]‐6‐[5‐fluoro‐6‐(2,2,2‐trifluoroethoxy)pyridin‐3‐yl]‐[1,2,4]triazolo[4,3‐a]pyrazine]",Mice that did not exhibit tonic seizures,"male CD‐1 mice [5]; 10 mg/kg po, 30 min before MES",11 of 12
same,EC50,"male CD‐1 mice [5]; po, read-out: MES EC50, plasma",0.0901 µg/mL
same,EC50,"male CD‐1 mice [5]; po, read-out: MES EC50, plasma, free",17.9 nM
same,EC50,"male CD‐1 mice [5]; read-out: MES EC50, free brain",4.3 nM
same,"MES EC50, brain",male CD‐1 mice [5]; [16],116 ng/g
same,"Ratio to Persistent INa (Peak INa TB), hNaV1.1",hNaV1.1 [6],173
same,"Peak INa VDB, slope",hNaV1.6 [1],1.0
same,Ratio to persistent INa (peak INa VDB),hNaV1.6 [1],2.2
same,PI wider compared to CBZ and LTG,"male CD‐1 mice [7]; acute, MES and sLMA models",3 ×
same,PI (plasma TC50/plasma EC50),male CD‐1 mice [7],~17
same,"Peak INa UDB, 10 Hz, slope",hNaV1.6 [2],1.3
same,Ratio to persistent INa (peak INa UDB),hNaV1.6 [2],2
same,Ratio to peak INa TB (peak INa UDB),hNaV1.6 [2],31
same,"Persistent INa, slope",hNaV1.6 [3],1.2
same,"Peak INa TB, slope",hNaV1.6 [4],1.0
same,IC50,"hNaV1.6 [4]; Peak INa TB, IC50, hNaV1.6 tonic block, .1 Hz",8.47 µM
same,Ratio to persistent INa (peak INa TB),hNaV1.6 [4],60
same,"Ratio to Persistent INa (Peak INa VDB), hNaV1.5",hNaV1.5 [8],5.8
same,"Ratio to Persistent INa (Peak INa VDB), hNaV1.2",hNaV1.2 [9],8.2
same,"Ratio to Persistent INa (Peak INa TB), hNaV1.2",hNaV1.2 [10],80
same,Effect on locomotor function,male CD‐1 mice [11]; 10 mg/kg po,no effect
same,Distance moved in sLMA,male CD‐1 mice [11]; 20 and 40 mg/kg po,reductions in the distance moved
same,"sLMA TC50, plasma, free","male CD‐1 mice [11]; male CD‐1 mice, po, free plasma",308.9 nmol·L^–1
same,"sLMA TC50, brain",male CD‐1 mice [11]; [16],1899 ng/g
same,"sLMA TC50, plasma","male CD‐1 mice [11]; male CD‐1 mice, po, total plasma",1553 ng/mL
same,"sLMA TC50, free brain",male CD‐1 mice [11]; male CD‐1 mice,69.7 nmol·L^–1
same,"Ratio to Persistent INa (Peak INa VDB), hNaV1.1",hNaV1.1 [12],6.3
same,"Ratio to Persistent INa (Peak INa TB), hNaV1.5",hNaV1.5 [13],> 174
same,"Intrinsic excitability, number of evoked APs",[14]; .3 µmol·L^–1,significantly reduced
same,AP amplitude,"[14]; .3 µmol·L^–1, +200 pA",minimal effects
COC[C@@H](NC(C)=O)C(=O)NCc1ccccc1 [Lacosamide],"Peak INa VDB, slope",hNaV1.6 [1],1.2
same,Ratio to persistent INa (peak INa VDB),hNaV1.6 [1],.3
same,"Peak INa UDB, 10 Hz, slope",hNaV1.6 [2],1.3
same,Ratio to persistent INa (peak INa UDB),hNaV1.6 [2],.8
same,"Persistent INa, slope",hNaV1.6 [3],.9
NC(=O)N1c2ccccc2CC(=O)c2ccccc21 [Oxcarbazepine],"Peak INa VDB, slope",hNaV1.6 [1],1.1
same,Ratio to persistent INa (peak INa VDB),hNaV1.6 [1],.3
same,"Persistent INa, slope",hNaV1.6 [3],1.0
same,"Peak INa TB, slope",hNaV1.6 [4],1.7
same,Ratio to persistent INa (peak INa TB),hNaV1.6 [4],8
O=C1NC(=O)C(c2ccccc2)(c2ccccc2)N1 [Phenytoin],"Peak INa VDB, slope",hNaV1.6 [1],1.0
same,Ratio to persistent INa (peak INa VDB),hNaV1.6 [1],.8
same,"Peak INa UDB, 10 Hz, slope",hNaV1.6 [2],.6
same,Ratio to persistent INa (peak INa UDB),hNaV1.6 [2],15
same,"Persistent INa, slope",hNaV1.6 [3],.8
"NC(=O)N1c2ccccc2C=Cc2ccccc21 [Carbamazepine, carbamazepine]",EC50,"male CD‐1 mice [5]; read-out: MES EC50, free brain",2410 nM
same,MES ED50 (increasing latency to tonic extension seizures),"male CD‐1 mice [5]; male CD‐1 mice, listed as CBZ",3.4 mg/kg
same,"Peak INa VDB, slope",hNaV1.6 [1],.9
same,PI (plasma TC50/plasma EC50),male CD‐1 mice [7],3.4
same,"Peak INa UDB, 10 Hz, slope",hNaV1.6 [2],.9
same,Use‐dependent block at a stimulation frequency of 10 Hz,hNaV1.6 [2],not observed
same,"Persistent INa, slope",hNaV1.6 [3],1.1
same,IC50,"hNaV1.6 [3]; Persistent INa, IC50, hNaV1.6, 200 nmol·L^–1 ATX‐II, holding −120 mV",77.5 µM
same,"Peak INa TB, slope",hNaV1.6 [4],1.0
same,Sedation/sLMA at the dose required for complete seizure prevention,male CD‐1 mice [11]; ip,significant reduction in sLMA
same,sLMA TD50,"male CD‐1 mice [11]; male CD‐1 mice, listed as CBZ",26.5 mg/kg
same,"sLMA TC50, free brain",male CD‐1 mice [11]; male CD‐1 mice,14 350 nmol·L^–1
FC(F)(F)Oc1ccc(-c2ccc3nnc(C(F)(F)F)n3c2)cc1 [PRAX‐330],Seizures and premature death in NaV DEE mouse models,[15],protected mice from seizures and premature death
"Nc1nnc(-c2cccc(Cl)c2Cl)c(N)n1 [Lamotrigine, lamotrigine]",EC50,"male CD‐1 mice [5]; read-out: MES EC50, free brain",2750 nM
same,MES ED50 (increasing latency to tonic extension seizures),"male CD‐1 mice [5]; male CD‐1 mice, listed as LTG",5.0 mg/kg
same,"Peak INa VDB, slope",hNaV1.6 [1],.9
same,"Peak INa UDB, 10 Hz, slope",hNaV1.6 [2],1.0
same,Use‐dependent block at a stimulation frequency of 10 Hz,hNaV1.6 [2],not observed
same,"Persistent INa, slope",hNaV1.6 [3],1.0
same,"Peak INa TB, slope",hNaV1.6 [4],.8
same,sLMA TD50,"male CD‐1 mice [11]; male CD‐1 mice, listed as LTG",37.6 mg/kg
same,"sLMA TC50, free brain",male CD‐1 mice [11]; male CD‐1 mice,12 853 nmol·L^–1
